Results as given in ChEMBL document CHEMBL1641546, “The discovery and structure-activity relationships leading to CE-156811, a difluorophenyl cyclopropyl fluoroether: a novel potent antibacterial analog derived from hygromycin A” (Bioorg Med Chem Lett, 2011).
Values after ≈ are worked out from the molar mass of the structure shown. Active and inactive are the calls of the source. The rule behind the calls is not given here.

Tests used:
Enterococcus faecium [1] = test: Antibacterial activity against Enterococcus faecium 1022; type: functional
Streptococcus pneumoniae [2] = test: Antibacterial activity against Streptococcus pneumoniae 1016; type: functional
Staphylococcus aureus [3] = test: Antibacterial activity against Staphylococcus aureus 1095; type: functional
Enterococcus faecalis [4] = test: Antibacterial activity against Enterococcus faecalis 1085; type: functional
Streptococcus pneumoniae [5] = test: Antibacterial activity against penicillin-resistant Streptococcus pneumoniae; type: functional
[6] = system: Staphylococcus epidermidis; test: Antibacterial activity against methicillin-sensitive Staphylococcus epidermidis; type: functional
Enterococcus faecalis [7] = test: Antibacterial activity against Enterococcus faecalis infected in po dosed in vivo acute model administered bid for 1 day; type: functional; details: 24 h, read-out: PD50
Streptococcus pneumoniae [8] = test: Antibacterial activity against Streptococcus pneumoniae infected in po dosed in vivo lung model administered bid for 3 day; type: functional; details: 72 h, read-out: PD50
Enterococcus faecium [9] = test: Antibacterial activity against multidrug-resistant Enterococcus faecium; type: functional
Staphylococcus aureus [10] = test: Antibacterial activity against glycopeptide-intermediate Staphylococcus aureus; type: functional
Enterococcus faecalis [11] = test: Antibacterial activity against multidrug-resistant Enterococcus faecalis; type: functional
Staphylococcus aureus [12] = test: Antibacterial activity against methicillin-resistant Staphylococcus aureus; type: functional
Enterococcus faecium [13] = test: Antibacterial activity against Enterococcus faecium infected in po dosed in vivo acute model administered bid for 1 day; type: functional; details: 24 h, read-out: PD50
Staphylococcus aureus [14] = test: Antibacterial activity against methicillin-sensitive Staphylococcus aureus; type: functional
Streptococcus pyogenes [15] = test: Antibacterial activity against Streptococcus pyogenes infected in po dosed in vivo acute model administered bid for 1 day; type: functional; details: 24 h, read-out: PD50
[16] = Half life in monkey; type: ADME, organism-based, Macaca mulatta; details: rhesus monkey, in vivo
[17] = Oral bioavailability in rat at 10 mg/kg, po and 5 mg/kg, iv; type: ADME, organism-based; details: in vivo
Streptococcus pyogenes [18] = test: Antibacterial activity against Streptococcus pyogenes infected in sc dosed in vivo acute model administered bid for 1 day; type: functional; details: 24 h, read-out: PD50
[19] = Clearance in dog; type: ADME, organism-based, Canis lupus familiaris; details: in vivo
[20] = Half life in rat; type: ADME, organism-based; details: in vivo
Enterococcus faecium [21] = test: Antibacterial activity against Enterococcus faecium infected in sc dosed in vivo acute model administered bid for 1 day; type: functional; details: 24 h, read-out: PD50
Enterococcus faecalis [22] = test: Antibacterial activity against Enterococcus faecalis infected in sc dosed in vivo acute model administered bid for 1 day; type: functional; details: 24 h, read-out: PD50
[23] = Volume of distribution at steady state in monkey; type: ADME, organism-based, Macaca mulatta; details: rhesus monkey, in vivo; read-out: Vdss
Staphylococcus aureus [24] = test: Antibacterial activity against Staphylococcus aureus infected in sc dosed in vivo acute model administered bid for 1 day; type: functional; details: 24 h, read-out: PD50
[25] = Clearance in mouse; type: ADME, organism-based; details: in vivo
[26] = Oral bioavailability in mouse; type: ADME, organism-based; details: in vivo
[27] = Volume of distribution at steady state in mouse; type: ADME, organism-based; details: in vivo, read-out: Vdss
Streptococcus pneumoniae [28] = test: Antibacterial activity against Streptococcus pneumoniae infected in sc dosed in vivo lung model administered bid for 3 day; type: functional; details: 72 h, read-out: PD50
[29] = Half life in dog; type: ADME, organism-based, Canis lupus familiaris; details: in vivo
[30] = Clearance in rat; type: ADME, organism-based; details: in vivo
[31] = Volume of distribution at steady state in dog; type: ADME, organism-based, Canis lupus familiaris; details: in vivo, read-out: Vdss
[32] = Clearance in monkey; type: ADME, organism-based, Macaca mulatta; details: rhesus monkey, in vivo
[33] = Volume of distribution at steady state in rat; type: ADME, organism-based; details: in vivo, read-out: Vdss
[34] = Half life in mouse; type: ADME, organism-based; details: in vivo

**Q.** Which MIC (Enterococcus faecium [1]) does the source give for `C/C(=C\c1cc(F)c(OCCF)cc1F)C(=O)N[C@@H]1[C@H](O)[C@@H](O)[C@H]2OCO[C@H]2[C@@H]1O` here?
**A.** 25 µg/mL (≈ 57.7 µM)

**Q.** What about the MIC (Streptococcus pneumoniae [2]) of the same molecule?
**A.** 6.2 µg/mL (≈ 14.3 µM)

**Q.** And the MIC (Staphylococcus aureus [3])?
**A.** 50 µg/mL (≈ 115 µM)

**Q.** What about the MIC (Enterococcus faecalis [4]) of the same molecule?
**A.** 25 µg/mL (≈ 57.7 µM)

**Q.** What does the source list for `C/C(=C\c1cc(F)c(OCCCF)cc1F)C(=O)N[C@@H]1[C@H](O)[C@@H](O)[C@H]2OCO[C@H]2[C@@H]1O`?
**A.** MIC (Enterococcus faecium [1]): 0.78 µg/mL (≈ 1.74 µM); MIC (Streptococcus pneumoniae [2]): 2 µg/mL (≈ 4.47 µM); MIC (Staphylococcus aureus [3]): 1.56 µg/mL (≈ 3.49 µM); MIC (Enterococcus faecalis [4]): 1.56 µg/mL (≈ 3.49 µM)

**Q.** For `CC(=O)NC[C@H]1CN(c2ccc(N3CCOCC3)c(F)c2)C(=O)O1` [LINEZOLID], which MIC90 (Streptococcus pneumoniae [5]) is on record?
**A.** 1 µg/mL (≈ 2.96 µM)

**Q.** What about the MIC90 [6] of the same molecule?
**A.** 1 µg/mL (≈ 2.96 µM)

**Q.** What about the ED50 (Enterococcus faecalis [7]) of the same molecule?
**A.** 3 mg/kg

**Q.** And the ED50 (Streptococcus pneumoniae [8])?
**A.** 10 mg/kg

**Q.** And the MIC90 (Enterococcus faecium [9])?
**A.** 2 µg/mL (≈ 5.93 µM)

**Q.** What about the MIC90 (Staphylococcus aureus [10]) of the same molecule?
**A.** 0.5 µg/mL (≈ 1.48 µM)

**Q.** What about the MIC90 (Enterococcus faecalis [11]) of the same molecule?
**A.** 1 µg/mL (≈ 2.96 µM)

**Q.** And the MIC90 (Staphylococcus aureus [12])?
**A.** 1 µg/mL (≈ 2.96 µM)

**Q.** What about the ED50 (Enterococcus faecium [13]) of the same molecule?
**A.** 4 mg/kg

**Q.** And the MIC90 (Staphylococcus aureus [14])?
**A.** 2 µg/mL (≈ 5.93 µM)

**Q.** What about the ED50 (Streptococcus pyogenes [15]) of the same molecule?
**A.** 3 mg/kg

**Q.** For `C/C(=C\c1cc(F)c(OCC2CCC2)cc1F)C(=O)N[C@@H]1[C@H](O)[C@@H](O)[C@H]2OCO[C@H]2[C@@H]1O`, which MIC (Enterococcus faecium [1]) is on record?
**A.** 6.2 µg/mL (≈ 13.6 µM)

**Q.** And the MIC (Streptococcus pneumoniae [2])?
**A.** 6.2 µg/mL (≈ 13.6 µM)

**Q.** What about the MIC (Staphylococcus aureus [3]) of the same molecule?
**A.** 12.5 µg/mL (≈ 27.4 µM)

**Q.** And the MIC (Enterococcus faecalis [4])?
**A.** 12.5 µg/mL (≈ 27.4 µM)

**Q.** Which results are given for `C/C(=C\c1cc(F)c(OCC(F)C2CC2)cc1F)C(=O)N[C@@H]1[C@H](O)[C@@H](O)[C@H]2OCO[C@H]2[C@@H]1O` (some centres not stated)?
**A.** MIC (Enterococcus faecium [1]): 1.6 µg/mL (≈ 3.38 µM); MIC (Streptococcus pneumoniae [2]): 0.4 µg/mL (≈ 0.845 µM); MIC (Staphylococcus aureus [3]): 1.56 µg/mL (≈ 3.3 µM); MIC (Enterococcus faecalis [4]): 1.6 µg/mL (≈ 3.38 µM)

**Q.** With `C/C(=C\c1cc(F)c(OCCC(C)(C)F)cc1F)C(=O)N[C@@H]1[C@H](O)[C@@H](O)[C@H]2OCO[C@H]2[C@@H]1O` as the molecule, how does the MIC (Enterococcus faecium [1]) read?
**A.** 50 µg/mL (≈ 105 µM)

**Q.** And the MIC (Streptococcus pneumoniae [2])?
**A.** 25 µg/mL (≈ 52.6 µM)

**Q.** What about the MIC (Staphylococcus aureus [3]) of the same molecule?
**A.** 100 µg/mL (≈ 210 µM)

**Q.** And the MIC (Enterococcus faecalis [4])?
**A.** 100 µg/mL (≈ 210 µM)

**Q.** Which MIC90 (Streptococcus pneumoniae [5]) does the source give for `C/C(=C\c1cc(F)c(OC[C@H](F)C2CC2)cc1F)C(=O)N[C@@H]1[C@H](O)[C@@H](O)[C@H]2OCO[C@H]2[C@@H]1O` here?
**A.** 0.5 µg/mL (≈ 1.06 µM)

**Q.** And the half-life [16]?
**A.** 1 h

**Q.** And the bioavailability [17]?
**A.** 56%

**Q.** And the ED50 (Streptococcus pyogenes [18])?
**A.** 3 mg/kg

**Q.** What about the clearance [19] of the same molecule?
**A.** 5.4 mL/min/kg

**Q.** And the half-life [20]?
**A.** 1.3 h

**Q.** And the ED50 (Enterococcus faecium [21])?
**A.** 8 mg/kg

**Q.** What about the ED50 (Enterococcus faecalis [22]) of the same molecule?
**A.** 10 mg/kg

**Q.** What about the Vd [23] of the same molecule?
**A.** 0.59 L/kg

**Q.** What about the MIC90 [6] of the same molecule?
**A.** 0.25 µg/mL (≈ 0.528 µM)

**Q.** And the ED50 (Staphylococcus aureus [24])?
**A.** 4 mg/kg

**Q.** What about the clearance [25] of the same molecule?
**A.** 12.1 mL/min/kg

**Q.** And the bioavailability [26]?
**A.** 55%

**Q.** And the Vd [27]?
**A.** 0.52 L/kg

**Q.** What about the MIC90 (Enterococcus faecium [9]) of the same molecule?
**A.** 1 µg/mL (≈ 2.11 µM)

**Q.** What about the ED50 (Streptococcus pneumoniae [28]) of the same molecule?
**A.** 23 mg/kg

**Q.** What about the half-life [29] of the same molecule?
**A.** 1.9 h

**Q.** And the MIC90 (Staphylococcus aureus [10])?
**A.** 0.125 µg/mL (≈ 0.264 µM)

**Q.** What about the clearance [30] of the same molecule?
**A.** 10.5 mL/min/kg

**Q.** And the MIC90 (Enterococcus faecalis [11])?
**A.** 0.5 µg/mL (≈ 1.06 µM)

**Q.** And the Vd [31]?
**A.** 0.71 L/kg

**Q.** What about the MIC90 (Staphylococcus aureus [12]) of the same molecule?
**A.** 0.5 µg/mL (≈ 1.06 µM)

**Q.** And the MIC90 (Staphylococcus aureus [14])?
**A.** 1 µg/mL (≈ 2.11 µM)

**Q.** And the clearance [32]?
**A.** 8.6 mL/min/kg

**Q.** What about the Vd [33] of the same molecule?
**A.** 0.5 L/kg

**Q.** And the half-life [34]?
**A.** 1.4 h

**Q.** What does the source list for `C/C(=C\c1cc(F)c(OCC(C)F)cc1F)C(=O)N[C@@H]1[C@H](O)[C@@H](O)[C@H]2OCO[C@H]2[C@@H]1O` (some centres not stated)?
**A.** MIC (Enterococcus faecium [1]): 3.13 µg/mL (≈ 7 µM); MIC (Streptococcus pneumoniae [2]): 60.2 µg/mL (≈ 135 µM); MIC (Staphylococcus aureus [3]): 6.25 µg/mL (≈ 14 µM); MIC (Enterococcus faecalis [4]): 60.2 µg/mL (≈ 135 µM)

**Q.** What does the source list for `CCOc1cc(F)c(/C=C(\C)C(=O)N[C@@H]2[C@H](O)[C@@H](O)[C@H]3OCO[C@H]3[C@@H]2O)cc1F`?
**A.** MIC (Enterococcus faecium [1]): 12.5 µg/mL (≈ 30.1 µM); MIC (Streptococcus pneumoniae [2]): inactive; MIC (Staphylococcus aureus [3]): 100 µg/mL (≈ 241 µM); MIC (Enterococcus faecalis [4]): 25 µg/mL (≈ 60.2 µM)

**Q.** Which MIC (Enterococcus faecium [1]) does the source give for `C/C(=C\c1cc(F)c(OCCO)cc1F)C(=O)N[C@@H]1[C@H](O)[C@@H](O)[C@H]2OCO[C@H]2[C@@H]1O` here?
**A.** > 100 µg/mL

**Q.** And the MIC (Streptococcus pneumoniae [2])?
**A.** inactive

**Q.** What about the MIC (Staphylococcus aureus [3]) of the same molecule?
**A.** 100 µg/mL (≈ 232 µM)

**Q.** What about the MIC (Enterococcus faecalis [4]) of the same molecule?
**A.** > 100 µg/mL

**Q.** For `C/C(=C\c1cc(F)c(OCC2(F)CCC2)cc1F)C(=O)N[C@@H]1[C@H](O)[C@@H](O)[C@H]2OCO[C@H]2[C@@H]1O`, which MIC (Enterococcus faecium [1]) is on record?
**A.** 6.2 µg/mL (≈ 13.1 µM)

**Q.** What about the MIC (Streptococcus pneumoniae [2]) of the same molecule?
**A.** 3.1 µg/mL (≈ 6.55 µM)

**Q.** And the MIC (Staphylococcus aureus [3])?
**A.** 6.2 µg/mL (≈ 13.1 µM)

**Q.** What about the MIC (Enterococcus faecalis [4]) of the same molecule?
**A.** 6.2 µg/mL (≈ 13.1 µM)

**Q.** Which MIC (Enterococcus faecium [1]) does the source give for `C/C(=C\c1cc(F)c(OCCC(F)F)cc1F)C(=O)N[C@@H]1[C@H](O)[C@@H](O)[C@H]2OCO[C@H]2[C@@H]1O` here?
**A.** 3.13 µg/mL (≈ 6.73 µM)

**Q.** And the MIC (Streptococcus pneumoniae [2])?
**A.** 1.56 µg/mL (≈ 3.35 µM)

**Q.** What about the MIC (Staphylococcus aureus [3]) of the same molecule?
**A.** 12.5 µg/mL (≈ 26.9 µM)

**Q.** And the MIC (Enterococcus faecalis [4])?
**A.** 12.5 µg/mL (≈ 26.9 µM)
